Test results: ChEMBL document CHEMBL1201862, “PubChem BioAssay data set” (2004)
The source made the active and inactive calls.

Key:
[1] = molecular target: Voltage-gated inwardly rectifying potassium channel KCNH2 (Homo sapiens, UniProt Q12809); conditions: Potency;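 also: confirmatory quantitative high-throughput screen measuring inhibition of hERG channel activity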
[2] = decrease of insulin promoter-GFP reporter – imaging, high-content screening, mouse beta cells (AID 1628); assay type: functional; conditions: MIN6
[3] = MIN6 cell viability loss – mouse insulinoma, cytotoxicity control, dose response (AID 2122); assay type: functional;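 also: confirmatory high-throughput counterscreen run to flag cytotoxic compounds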
[4] = molecular target: Glyceraldehyde-3-phosphate dehydrogenase (Homo sapiens, UniProt P04406)
[5] = molecular target: T1, Alkaline phosphatase, tissue-nonspecific isozyme (Homo sapiens, UniProt P05186); assay: potency against alkaline phosphatase TNAP – biochemical, luminescent, dose response, SAR follow-up (AID 1056)
T1 sequence (P05186 whole entry): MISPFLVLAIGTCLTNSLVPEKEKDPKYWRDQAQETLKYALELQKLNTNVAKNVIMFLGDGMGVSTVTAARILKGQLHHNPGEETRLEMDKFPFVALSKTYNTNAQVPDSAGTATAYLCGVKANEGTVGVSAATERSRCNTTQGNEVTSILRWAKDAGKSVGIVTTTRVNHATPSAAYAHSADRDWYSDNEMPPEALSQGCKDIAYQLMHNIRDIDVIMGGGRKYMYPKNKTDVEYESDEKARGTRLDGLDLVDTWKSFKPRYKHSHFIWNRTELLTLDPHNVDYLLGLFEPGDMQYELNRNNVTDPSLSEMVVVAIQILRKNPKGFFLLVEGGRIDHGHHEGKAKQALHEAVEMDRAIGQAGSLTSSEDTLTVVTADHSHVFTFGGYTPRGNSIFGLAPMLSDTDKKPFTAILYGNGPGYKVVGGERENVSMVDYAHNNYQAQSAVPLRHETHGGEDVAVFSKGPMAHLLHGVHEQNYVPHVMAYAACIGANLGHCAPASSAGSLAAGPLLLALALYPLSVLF

Vero [6] = assay: cells; assay type: functional; conditions: Chlorocebus sabaeus
Vero [7] = assay: cells; assay type: functional, cell-based; conditions: Chlorocebus sabaeus
[8] = molecular target: DNA dC->dU-editing enzyme APOBEC-3A (Homo sapiens, UniProt P31941); assay: Dose Response confirmation of small molecule APOBEC3A DNA Deaminase Inhibitors via a fluorescence-based single-stranded DNA deaminase assay. [Related pubchem assays (depositor defined):AID493011, AID493024]; assay type: functional
[9] = molecular target: DNA dC->dU-editing enzyme APOBEC-3G (Homo sapiens, UniProt Q9HC16); assay type: functional;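 also: Dose-response counterscreen measuring inhibition of APOBEC3G DNA deaminase activity, run while confirming APOBEC3A inhibitors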
Cytochrome P450 2C9 [10] = molecular target: T2, Cytochrome P450 2C9 (Homo sapiens, UniProt P11712)
Cytochrome P450 2C19 = Cytochrome P450 2C19 (Homo sapiens, UniProt P33261); assay: Cytochrome panel assay with activity outcomes. Panel member name: p450-cyp2c19 Compounds with AC50 equal or less than 10 uM are considered active; assay type: functional
[11] = molecular target: Eukaryotic translation initiation factor 4E (Mus musculus, UniProt P63073); assay: blockers of eIF4G binding by eIF4E – biochemical, TR-FRET, dose response (AID 855); assay type: functional;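 also: potency for disrupting eIF4E binding to eIF4GI seen as loss of FRET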
[12] = restored growth of temperature-sensitive Burl-1 yeast – whole organism, S. cerevisiae, Burl-1 ts mutant, luminescence, counter-screen for SUMOylation pathway inhibitor project, dose response (AID 463199); assay type: functional
INS1 = assay: INS-1E survival protection against cytokine death – cell-based, luminescence, retest, dose response (AID 449756); assay type: functional; conditions: Rattus norvegicus;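 also: cell death triggered by IL-1 beta plus TNF-alpha plus IFN-gamma mixture; protective hits raise ATP signal compared with cytokine alone wells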
[13] = non-specific 3'UTR reporter inhibition in Clone20-Shn3RL – cell-based, Renilla luciferase, cherry-picked, counter-screen for Shn3 inhibitor project, dose response (AID 624133); assay type: functional
[14] = Trypanosoma cruzi growth suppression in host cells – NIH3T3 host cells, beta-gal luminescence, confirmation (AID 2044); assay type: functional, cell-based;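 also: intracellular parasites grown in NIH/3T3 mouse fibroblasts as host cells; luminescent beta-galactosidase reporter signal from transgenic T. cruzi replicating inside host cells; inhibitors lower the luminescence signal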
[15] = molecular target: T3, Short transient receptor potential channel 4 (Mus musculus, UniProt Q9QUQ5); assay: calcium entry via TRPC4 opening agents – cell-based, HEK293 TRPC4/mu-opioid, Fluo-4 calcium, dose response (AID 434937); assay type: functional
T3 sequence (Q9QUQ5 whole entry): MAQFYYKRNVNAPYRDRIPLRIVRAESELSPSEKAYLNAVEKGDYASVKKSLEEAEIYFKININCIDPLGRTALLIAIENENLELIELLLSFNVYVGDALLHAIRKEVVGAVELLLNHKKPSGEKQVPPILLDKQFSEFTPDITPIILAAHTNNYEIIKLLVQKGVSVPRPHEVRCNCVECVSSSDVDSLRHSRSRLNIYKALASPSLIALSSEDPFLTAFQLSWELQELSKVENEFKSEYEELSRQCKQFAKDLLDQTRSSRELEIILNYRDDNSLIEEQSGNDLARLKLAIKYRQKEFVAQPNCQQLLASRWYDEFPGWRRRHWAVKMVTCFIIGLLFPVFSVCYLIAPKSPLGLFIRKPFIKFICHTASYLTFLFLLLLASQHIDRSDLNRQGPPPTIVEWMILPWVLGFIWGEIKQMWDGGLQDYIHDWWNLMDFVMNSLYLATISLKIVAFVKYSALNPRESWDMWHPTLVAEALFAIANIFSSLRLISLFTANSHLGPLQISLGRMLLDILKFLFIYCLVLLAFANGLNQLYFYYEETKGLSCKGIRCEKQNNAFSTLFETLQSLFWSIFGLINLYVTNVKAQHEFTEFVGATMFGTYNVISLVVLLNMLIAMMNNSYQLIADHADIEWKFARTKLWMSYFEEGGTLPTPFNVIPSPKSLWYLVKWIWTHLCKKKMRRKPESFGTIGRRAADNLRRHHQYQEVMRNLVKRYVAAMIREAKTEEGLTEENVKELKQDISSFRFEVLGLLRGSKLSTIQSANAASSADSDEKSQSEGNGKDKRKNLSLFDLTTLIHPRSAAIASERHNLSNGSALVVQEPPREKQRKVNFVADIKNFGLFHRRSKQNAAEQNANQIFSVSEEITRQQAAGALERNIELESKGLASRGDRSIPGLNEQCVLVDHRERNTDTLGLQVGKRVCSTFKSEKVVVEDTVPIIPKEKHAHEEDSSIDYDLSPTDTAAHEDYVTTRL

[16] = NIH3T3 cell viability loss – ATP luminescence, mouse fibroblasts, counter-screen, dose response (AID 2010); assay type: functional, cell-based;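 also: cells exposed to compound for about 90 hours before reading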
[17] = loss of viability in HepG2 cells – cell-based, CellTiter-Glo, cherry-picked, cytotoxicity control for Shn3 inhibitor project, dose response (AID 624134); assay type: functional
[18] = HEK-293T viability loss after treatment – luminescence, T-cell screen hits, cytotoxicity control for TCR NF-kB inhibitor project, dose response (AID 489026); assay type: functional, cell-based;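 also: cells exposed to compound about 14 hours before the viability readout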
[19] = reduction of Shn3 3'UTR-driven luciferase in osteoblasts – cell-based, Clone20 osteoblasts, firefly luciferase, cherry-picked, dose response (AID 624132); assay type: functional;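 also: firefly luciferase luminescence from reporter carrying the Shn3 3'UTR in osteoblasts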
[20] = molecular target: T4, Corticotropin-releasing factor receptor 2/Corticotropin-releasing factor-binding protein (Homo sapiens, UniProt P24387+Q13324); assay: activators of CRF receptor 2 with binding protein – uHTS hits, confirmation (AID 602473); assay type: functional; conditions: read-out: EC50_Mean
T4 sequence (Q13324 whole entry): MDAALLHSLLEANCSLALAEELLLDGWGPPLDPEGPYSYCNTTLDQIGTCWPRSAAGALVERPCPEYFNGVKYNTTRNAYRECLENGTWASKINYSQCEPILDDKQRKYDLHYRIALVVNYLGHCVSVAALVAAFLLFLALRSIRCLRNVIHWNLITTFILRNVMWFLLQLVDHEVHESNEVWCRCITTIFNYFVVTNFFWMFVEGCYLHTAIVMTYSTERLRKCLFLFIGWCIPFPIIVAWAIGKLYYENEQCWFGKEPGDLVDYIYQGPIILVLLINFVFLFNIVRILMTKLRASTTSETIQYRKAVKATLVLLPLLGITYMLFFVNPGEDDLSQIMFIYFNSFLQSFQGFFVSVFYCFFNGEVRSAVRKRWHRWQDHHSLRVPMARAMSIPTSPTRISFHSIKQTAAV
T4 sequence (P24387 whole entry): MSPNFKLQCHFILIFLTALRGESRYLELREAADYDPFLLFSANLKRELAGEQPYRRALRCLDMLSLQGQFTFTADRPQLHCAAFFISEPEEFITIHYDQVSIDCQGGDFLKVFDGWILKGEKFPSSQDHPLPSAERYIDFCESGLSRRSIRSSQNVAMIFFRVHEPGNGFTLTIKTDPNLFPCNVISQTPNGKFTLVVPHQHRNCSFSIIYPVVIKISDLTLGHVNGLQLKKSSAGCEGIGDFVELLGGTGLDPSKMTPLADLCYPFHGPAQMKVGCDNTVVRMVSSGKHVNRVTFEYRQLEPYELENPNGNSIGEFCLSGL

[21] = molecular target: T4, Corticotropin-releasing factor receptor 2/Corticotropin-releasing factor-binding protein; assay: Dose Response confirmation of uHTS hits for small molecule antagonists of the CRF-binding protein and CRF-R2 receptor complex.; assay type: functional; conditions: read-out: IC50_Mean
CAAX prenyl protease 2 = molecular target: T5, CAAX prenyl protease 2 (Homo sapiens, UniProt Q9Y256); assay: inhibition of Ras-converting CAAX protease Rce1 – biochemical, yeast membranes, quenched-peptide fluorescence, cherry-pick, dose response (AID 588849)
T5 sequence (Q9Y256 whole entry): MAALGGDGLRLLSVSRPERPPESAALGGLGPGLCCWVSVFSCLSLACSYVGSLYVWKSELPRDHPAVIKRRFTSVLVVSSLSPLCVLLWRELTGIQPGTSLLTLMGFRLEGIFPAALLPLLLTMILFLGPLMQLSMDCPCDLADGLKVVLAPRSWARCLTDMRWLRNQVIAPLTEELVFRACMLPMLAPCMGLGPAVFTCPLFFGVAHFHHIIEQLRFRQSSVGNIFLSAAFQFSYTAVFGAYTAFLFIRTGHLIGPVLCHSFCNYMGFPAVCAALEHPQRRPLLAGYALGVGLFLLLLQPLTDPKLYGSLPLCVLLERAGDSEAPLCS

Cytochrome P450 2C9 [22] = molecular target: T2, Cytochrome P450 2C9; remark: listed apart in the source
Cytochrome P450 3A4 = Cytochrome P450 3A4 (Homo sapiens, UniProt P08684);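 also: CYP3A4 tested as one member of a cytochrome P450 panel screen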
[23] = molecular target: T6, Carboxy-terminal domain RNA polymerase II polypeptide A small phosphatase 1 (Homo sapiens, UniProt Q9GZU7); assay: CTDSP1 inhibitors, concentration-response, biochemical, absorbance readout, ultra-high-throughput screen actives (AID 540297); assay type: functional
T6 sequence (Q9GZU7 whole entry): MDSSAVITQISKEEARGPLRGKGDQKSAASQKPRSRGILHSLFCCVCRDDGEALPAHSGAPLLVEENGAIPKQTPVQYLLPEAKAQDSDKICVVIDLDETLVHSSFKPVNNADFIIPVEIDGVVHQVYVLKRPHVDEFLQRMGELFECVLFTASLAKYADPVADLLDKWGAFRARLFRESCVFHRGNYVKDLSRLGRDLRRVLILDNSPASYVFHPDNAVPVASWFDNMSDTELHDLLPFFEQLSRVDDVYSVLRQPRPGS

Sequence of DNA dC->dU-editing enzyme APOBEC-3G (Q9HC16 whole entry): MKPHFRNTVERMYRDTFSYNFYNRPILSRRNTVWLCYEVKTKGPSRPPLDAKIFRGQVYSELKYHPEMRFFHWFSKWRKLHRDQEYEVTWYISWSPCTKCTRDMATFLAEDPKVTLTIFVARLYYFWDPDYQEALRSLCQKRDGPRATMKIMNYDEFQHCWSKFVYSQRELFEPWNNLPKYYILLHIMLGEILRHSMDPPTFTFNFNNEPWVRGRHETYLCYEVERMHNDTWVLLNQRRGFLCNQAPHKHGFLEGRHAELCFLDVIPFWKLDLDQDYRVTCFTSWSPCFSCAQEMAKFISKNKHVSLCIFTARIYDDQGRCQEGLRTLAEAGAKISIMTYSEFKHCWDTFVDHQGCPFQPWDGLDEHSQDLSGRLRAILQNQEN
Sequence of DNA dC->dU-editing enzyme APOBEC-3A (P31941 whole entry): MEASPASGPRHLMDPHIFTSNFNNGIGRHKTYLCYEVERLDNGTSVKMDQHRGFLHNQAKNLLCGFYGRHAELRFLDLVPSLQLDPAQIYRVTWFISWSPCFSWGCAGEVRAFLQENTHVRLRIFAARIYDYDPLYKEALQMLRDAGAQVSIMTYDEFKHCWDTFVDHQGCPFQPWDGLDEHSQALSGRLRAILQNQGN
Sequence of Glyceraldehyde-3-phosphate dehydrogenase (P04406 whole entry): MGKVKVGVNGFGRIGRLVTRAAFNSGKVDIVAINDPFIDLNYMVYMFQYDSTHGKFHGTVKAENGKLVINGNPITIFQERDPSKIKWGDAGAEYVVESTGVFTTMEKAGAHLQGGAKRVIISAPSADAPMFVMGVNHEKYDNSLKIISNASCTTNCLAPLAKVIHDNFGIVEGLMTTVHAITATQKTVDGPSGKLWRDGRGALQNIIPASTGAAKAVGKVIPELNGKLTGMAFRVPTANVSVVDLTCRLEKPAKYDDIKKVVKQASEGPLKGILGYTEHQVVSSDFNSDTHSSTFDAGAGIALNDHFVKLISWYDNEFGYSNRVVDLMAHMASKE
Sequence of Voltage-gated inwardly rectifying potassium channel KCNH2 (Q12809 whole entry): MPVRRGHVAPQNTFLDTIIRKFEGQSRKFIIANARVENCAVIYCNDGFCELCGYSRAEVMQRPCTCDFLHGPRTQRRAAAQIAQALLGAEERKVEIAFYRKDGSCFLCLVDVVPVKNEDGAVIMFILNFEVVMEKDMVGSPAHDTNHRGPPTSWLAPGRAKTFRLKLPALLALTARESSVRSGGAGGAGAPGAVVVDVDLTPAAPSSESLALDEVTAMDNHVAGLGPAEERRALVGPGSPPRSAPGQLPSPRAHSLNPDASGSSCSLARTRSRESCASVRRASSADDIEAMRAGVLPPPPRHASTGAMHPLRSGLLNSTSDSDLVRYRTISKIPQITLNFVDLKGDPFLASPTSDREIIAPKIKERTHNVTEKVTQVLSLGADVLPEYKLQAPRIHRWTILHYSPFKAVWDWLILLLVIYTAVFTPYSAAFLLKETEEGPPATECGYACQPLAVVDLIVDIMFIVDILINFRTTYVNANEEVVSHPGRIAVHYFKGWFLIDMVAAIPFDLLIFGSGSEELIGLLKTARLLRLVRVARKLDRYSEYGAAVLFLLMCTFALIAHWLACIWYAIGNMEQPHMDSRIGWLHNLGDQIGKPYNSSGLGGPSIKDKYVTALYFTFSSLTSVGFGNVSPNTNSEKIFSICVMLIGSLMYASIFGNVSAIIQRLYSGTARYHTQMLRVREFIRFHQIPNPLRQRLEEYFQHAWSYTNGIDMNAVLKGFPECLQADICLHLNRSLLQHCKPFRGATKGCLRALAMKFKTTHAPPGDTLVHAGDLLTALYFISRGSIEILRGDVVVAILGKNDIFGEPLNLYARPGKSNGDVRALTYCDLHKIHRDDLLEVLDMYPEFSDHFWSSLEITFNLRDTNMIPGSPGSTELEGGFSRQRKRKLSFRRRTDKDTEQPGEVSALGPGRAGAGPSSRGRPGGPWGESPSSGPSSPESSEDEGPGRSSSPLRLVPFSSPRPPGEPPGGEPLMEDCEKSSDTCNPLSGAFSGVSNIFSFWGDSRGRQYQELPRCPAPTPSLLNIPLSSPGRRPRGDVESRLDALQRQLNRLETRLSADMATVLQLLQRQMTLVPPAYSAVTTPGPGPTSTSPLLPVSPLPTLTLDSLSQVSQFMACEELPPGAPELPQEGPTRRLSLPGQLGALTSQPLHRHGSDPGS
T2 sequence (P11712 whole entry): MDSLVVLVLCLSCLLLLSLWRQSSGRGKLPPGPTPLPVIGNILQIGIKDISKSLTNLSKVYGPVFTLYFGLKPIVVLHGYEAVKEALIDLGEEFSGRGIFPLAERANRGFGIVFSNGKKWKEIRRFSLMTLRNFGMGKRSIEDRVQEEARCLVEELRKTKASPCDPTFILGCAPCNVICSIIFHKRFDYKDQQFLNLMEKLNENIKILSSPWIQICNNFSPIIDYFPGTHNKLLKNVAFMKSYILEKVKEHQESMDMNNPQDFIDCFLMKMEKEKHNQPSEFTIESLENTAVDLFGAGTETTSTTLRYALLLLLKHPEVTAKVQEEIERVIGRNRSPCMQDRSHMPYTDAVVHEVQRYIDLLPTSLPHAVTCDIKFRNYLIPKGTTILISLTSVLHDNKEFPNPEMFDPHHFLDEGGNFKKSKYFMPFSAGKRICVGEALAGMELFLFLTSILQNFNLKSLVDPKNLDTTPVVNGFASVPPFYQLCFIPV
Sequence of Cytochrome P450 2C19 (P33261 whole entry): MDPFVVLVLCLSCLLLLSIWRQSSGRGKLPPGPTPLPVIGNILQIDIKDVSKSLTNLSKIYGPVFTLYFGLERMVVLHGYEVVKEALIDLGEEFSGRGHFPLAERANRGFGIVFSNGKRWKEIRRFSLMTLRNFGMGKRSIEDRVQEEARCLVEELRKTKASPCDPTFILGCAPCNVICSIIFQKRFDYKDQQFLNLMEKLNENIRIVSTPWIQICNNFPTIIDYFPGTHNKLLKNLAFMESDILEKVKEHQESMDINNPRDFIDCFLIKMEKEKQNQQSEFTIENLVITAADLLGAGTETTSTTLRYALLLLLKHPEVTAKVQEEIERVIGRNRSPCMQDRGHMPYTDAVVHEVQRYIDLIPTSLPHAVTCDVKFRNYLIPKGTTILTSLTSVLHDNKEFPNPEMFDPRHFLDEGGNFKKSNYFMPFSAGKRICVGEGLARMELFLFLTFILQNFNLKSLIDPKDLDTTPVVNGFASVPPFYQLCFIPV
Sequence of Cytochrome P450 3A4 (P08684 whole entry, the tested form may be a part): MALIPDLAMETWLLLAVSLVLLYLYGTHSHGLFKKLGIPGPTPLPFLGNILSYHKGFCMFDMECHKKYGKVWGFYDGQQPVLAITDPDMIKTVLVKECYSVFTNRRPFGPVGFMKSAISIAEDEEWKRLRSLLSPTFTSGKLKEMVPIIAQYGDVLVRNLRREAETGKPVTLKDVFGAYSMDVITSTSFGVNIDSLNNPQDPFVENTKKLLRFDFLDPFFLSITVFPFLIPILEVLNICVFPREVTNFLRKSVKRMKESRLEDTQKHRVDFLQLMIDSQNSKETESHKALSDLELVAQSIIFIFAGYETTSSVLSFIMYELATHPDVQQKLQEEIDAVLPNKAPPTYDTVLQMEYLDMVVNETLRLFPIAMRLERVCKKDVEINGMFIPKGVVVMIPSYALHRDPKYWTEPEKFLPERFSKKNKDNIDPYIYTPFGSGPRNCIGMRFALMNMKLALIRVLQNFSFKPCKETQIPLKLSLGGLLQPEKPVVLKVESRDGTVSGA
Sequence of Eukaryotic translation initiation factor 4E (P63073 whole entry): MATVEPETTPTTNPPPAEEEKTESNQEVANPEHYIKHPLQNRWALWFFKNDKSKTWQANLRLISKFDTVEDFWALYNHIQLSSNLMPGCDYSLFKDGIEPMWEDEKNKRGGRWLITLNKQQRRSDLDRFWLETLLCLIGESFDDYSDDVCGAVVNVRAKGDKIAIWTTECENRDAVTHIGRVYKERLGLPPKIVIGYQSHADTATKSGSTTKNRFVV

## CC(COc1ccc(/C=C/c2ccccc2)cc1)[N+](C)(C)C (stereo not given)
[1]
  AC50: 22.4 µM (inconclusive)

## Cc1ccc(-n2c(SCC(=O)NCC3CCCO3)nc3nnc(C)c-3c2N)cc1Cl (stereo not given)
[2]
  IC50: 2.21 µM (active)
[3]
  IC50: 4.6 µM (active)

## O=C1[C@H]2CC=CC[C@H]2C(=O)N1c1nnc(Cc2ccc(F)cc2)[nH]1
[4]
  IC50: > 100 µM (not active)
[5]
  IC50: 4.2 µM (active)

## CCc1c(C)sc(NC(=O)C2CC2c2ccccc2)c1C(N)=O (stereo not given)
Vero [6]
  CC50: > 25 µM (active)
Vero [7]
  IC50: 3.57 µM (active)

## C[n+]1ccccc1/C=C/c1ccccc1Cl
[8]
  IC50: 2.25 µM (active)
[9]
  IC50: 2.41 µM (active)

## Cc1ccc(Cn2cnc3ccccc32)cc1
[2]
  IC50: 4.89 µM (active)
[3]
  IC50: 4.02 µM (active)

## COc1ccc(CN2CCN(C(=O)CC(C)C)CC2)c(OC)c1OC
Cytochrome P450 2C9 [10]
  AC50: inconclusive
Cytochrome P450 2C19
  AC50: 25.1 µM (inconclusive)
[11]
  IC50: > 64 µM (inactive)

## CC(=O)c1cccc(CN2CCCC(N3CCN(c4ccccc4F)CC3)C2)c1 (stereo not given)
[12]
  AC50: 49.9 µM (active)

## Cc1sc2ncnc(NC3CCN(Cc4ccccc4)CC3)c2c1C
INS1
  AC50: 2.88 µM (active)
[13]
  AC50: 2.61 µM (active)
[14]
  EC50: 1.78 µM (active)
[2]
  IC50: 0.411 µM (active)
[15]
  EC50: 0.0467 µM (active)
[3]
  IC50: 0.316 µM (active)
[16]
  EC50: > 60 µM (not active)
[17]
  AC50: 3.41 µM (active)
[18]
  IC50: > 80 µM (inactive)
[19]
  AC50: 1.02 µM (active)

## CC(C)C[C@H](N)CSSC[C@@H](N)CC(C)C
[1]
  AC50: 35.5 µM (inconclusive)

## OC(COc1ccc(CNCCc2ccc(C(F)(F)F)cc2)cc1)CN1CCCCC1 (stereo not given)
Vero [6]
  CC50: 16.4 µM (active)
[14]
  EC50: 1.26 µM (active)
[16]
  EC50: 5.08 µM (active)
Vero [7]
  IC50: 8.76 µM (active)

## CS(=O)(=O)Nc1ccccc1C(=O)NCc1ccccc1Cl
[20]
  EC50: > 53 µM (inactive)
[21]
  IC50: > 47.1 µM (inactive)
CAAX prenyl protease 2
  AC50: 12.8 µM (active)

## COc1ccc(N2CC(C(=O)NCc3ccco3)CC2=O)cc1 (stereo not given)
[8]
  IC50: 39.6 µM (active)
[9]
  IC50: 21.2 µM (active)

## CC(=O)N1CCN(c2ccc(NC(=O)c3ccc(C)cc3)cc2)CC1
Cytochrome P450 2C9 [22]
  AC50: 39.8 µM (inconclusive)
Cytochrome P450 3A4
  AC50: inconclusive
Cytochrome P450 2C19
  AC50: 15.8 µM (inconclusive)

## Cc1cc(C(=O)NCc2ccc(C(=O)O)o2)c(C)o1
[8]
  IC50: 31 µM (active)
[9]
  IC50: 45.9 µM (active)
[23]
  IC50: 4.04 µM (active)

## Cc1csc2nc(=O)c3ccccc3n12
CAAX prenyl protease 2
  AC50: 63 µM (active)

## CC1CCN(C(=O)Cn2cnc3c2c(=O)n(C)c(=O)n3C)c2ccccc2S1 (stereo not given)
[12]
  AC50: 87.7 µM (active)

## O=C1C(Cl)=C(Cl)C(=O)N1c1nnc(Cc2ccccc2)[nH]1
[4]
  IC50: > 100 µM (not active)
[5]
  IC50: 3.24 µM (active)
